Assay results: US20220235073A1, “ARTEMISININ-DERIVATIVE N-HETEROCYCLIC CARBENE GOLD(I) HYBRID COMPLEXES” (CENTRE NATIONAL DE LA RECHERCHE SCIENTIFIQUE, priority 2019, published 2022)
Where two headings read alike, the source gives them in different places.

Tests used:
[1] = test system: NF-κB transcription factor induced by TNFalpha; assay: NF-kB transcriptional activity, NF-kB Reporter (Luc)-A549 stable cell line; assay type: cell-based, human; settings: NF-kB Reporter A549 cells, 1 ng/ml TNFα, 7 hours, read-out: IC50, inhibition of NF-κB transcription factor induced by TNFalpha
Procedure: The NF-kB Reporter (Luc)—A549 Stable Cell Line was used to quantify the inhibitory effects of the indicated doses of the molecules of the invention on transcriptional activity of NF-kB activated by 1 ng/ml TNFα (7 hours of treatment).
Luminescence was read using a luminometer and readings were normalized to wells that only contain media to obtain the Relative Luminescence Units (RLUs).
9. NF-kB Transcriptional Activity

Nrf2 = assay: NRF2 transcriptional activity, ARE Reporter Hep G2 cell line; assay type: cell-based, human; settings: ARE Reporter Hep G2 cells, 16 hours, any dose
Procedure: The ARE Reporter Hep G2 cell line containing a firefly luciferase gene under the control of ARE stably integrated into Hep G2 cells was used to quantify NRF2 transcriptional activity after 16 hours of treatment with the indicated doses of the different complexes. The results are shown as fold induction of ARE luciferase reporter expression. Dashed line indicates a fold induction of 1 (values >1 mean activation and values <1 mean inhibition).
ARE-reporter-HepG-2 cells were harvested from culture in Growth Medium 1K and they were seeded at a concentration of 40,000 cells/well into white clear-bottom 96-well microplate in 45 μL of Growth Medium 1K without Geneticin. Cells were allowed to attach overnight and then treated with different concentrations of complex 2a (from 0.01 μM to 20 μM), auranofin (from 0.01 μM to 20 μM) or DHA (from 0.01 μM to 3, 5, 10, 20 and 50 μM), and complex (from 0.01 μM to 20 μM). After incubation at 37° C. and 5% CO2 for 16 hours, ONE-Step luciferase assay reagent (100 μL) was added and rock at room temperature for over 15 minutes. Then the luminescence of each well was determined by CLARIOstar microplate reader to quantify induction of ARE. Three independent experiments were performed as biological triplicates. The results are in FIG. 4.

| IC50 ([1]; Homo sapiens) | Structure (SMILES) | IC50 [1] | Effect on activity of Nrf2 (Nrf2) |
| --- | --- | --- | --- |
| – | CC(=O)OC[C@H]1O[C@@H]([S-])[C@H](OC(C)=O)[C@@H](OC(C)=O)[C@@H]1OC(C)=O.CCP(CC)CC.[Au+] [Auranofin] | 2.96 µM | activate |
| 8.91 µM | C[C@H]1[C@@H](O)O[C@@H]2O[C@]3(C)CC[C@H]4[C@H](C)CC[C@@H]1[C@@]24OO3 [DHA, dihydroartemisinin] | – | – |
